Activity calls are given as the source filed them. No cut-off for these calls is given here.
Tests used:
RAW264.7 [1] = experiment: Inhibition of MAPK signaling pathway in LPS-induced mouse RAW264.7 cells assessed as reduction in phosphorylated p38 level at 10 uM incubated for 24 hrs by Western blot analysis; assay type: cell-based
[2] = Downregulation of MAPK protein expression in LPS-induced mouse RAW264.7 cells at 0.2 uM incubated for 24 hrs by Western blot analysis relative to control; assay type: functional
RAW264.7 [3] = experiment: Inhibition of NFkappaB pathway activation in LPS-induced mouse RAW264.7 cells assessed as inhibition of IKBalpha phosphorylation at 10 uM incubated for 24 hrs by Western blot analysis; assay type: cell-based
RAW264.7 [4] = experiment: Cytotoxicity against mouse RAW264.7 cells assessed as inhibition of cell growth at 2 uM incubated for 24 hrs by MTT assay; assay type: toxicity, cell-based; conditions: raw264.7, 24 h
RAW264.7 [5] = experiment: Anti-inflammatory activity in LPS-induced mouse RAW264.7 cells assessed as inhibition of TNF-alpha level at 2 uM incubated for 24 hrs by ELISA relative to control; assay type: functional
RAW264.7 [6] = experiment: Inhibition of MAPK signaling pathway in LPS-induced mouse RAW264.7 cells assessed as reduction in p38 phosphorylation at 0.2 uM incubated for 24 hrs by Western blot analysis; assay type: cell-based
RAW264.7 [7] = experiment: Inhibition of NFkappaB pathway activation in LPS-induced mouse RAW264.7 cells assessed as inhibition of p65 phosphorylation at 0.2 uM incubated for 24 hrs by Western blot analysis; assay type: cell-based
RAW264.7 [8] = experiment: Inhibition of NFkappaB pathway activation in LPS-induced mouse RAW264.7 cells assessed as reduction in phosphorylated p65 level at 0.2 to 10 uM incubated for 24 hrs by Western blot analysis relative to control; assay type: cell-based; conditions: dose 0.2-10 µM
RAW264.7 [9] = experiment: Inhibition of MAPK signaling pathway in LPS-induced mouse RAW264.7 cells assessed as reduction in ERK phosphorylation at 0.2 uM incubated for 24 hrs by Western blot analysis; assay type: cell-based
RAW264.7 [10] = experiment: Inhibition of MAPK signaling pathway in LPS-induced mouse RAW264.7 cells assessed as reduction in phosphorylated SAPK/JNK level at 10 uM incubated for 24 hrs by Western blot analysis; assay type: cell-based
RAW264.7 [11] = experiment: Anti-inflammatory activity in LPS-induced mouse RAW264.7 cells assessed as inhibition of IL-6 level at 2 uM incubated for 24 hrs by ELISA relative to control; assay type: functional
RAW264.7 [12] = experiment: Inhibition of MAPK signaling pathway in LPS-induced mouse RAW264.7 cells assessed as reduction in SAPK/JNK phosphorylation at 0.2 uM incubated for 24 hrs by Western blot analysis; assay type: cell-based
RAW264.7 [13] = experiment: Inhibition of NFkappaB pathway activation in LPS-induced mouse RAW264.7 cells assessed as reduction in phosphorylated IKBalpha level at 10 uM incubated for 24 hrs by Western blot analysis relative to control; assay type: cell-based
RAW264.7 [14] = experiment: Anti-inflammatory activity in LPS-induced mouse RAW264.7 cells assessed as inhibition of IL-1beta level at 2 uM incubated for 24 hrs by ELISA relative to control; assay type: functional
RAW264.7 [15] = experiment: Anti-inflammatory activity in LPS-induced mouse RAW264.7 cells assessed as inhibition of NO levels incubated for 24 hrs; assay type: functional, cell-based; conditions: RAW264.7, 24 h

C=CCOc1ccccc1C[C@H]1C(=O)N(C)C(=O)c2nc3ccccc3c(=O)n21
inhibition (RAW264.7 [1]): Active; Reduction In Cellular P-P38 Level Was Almost Close To Untreated Control | Activity [2]: >30% | inhibition (RAW264.7 [3]): Active | Activity (RAW264.7 [4]): Non-toxic | inhibition at 2 µM (RAW264.7 [5]): 25.6% | inhibition (RAW264.7 [6]): Active | inhibition (RAW264.7 [7]): Active | inhibition (RAW264.7 [8]): 50% | inhibition (RAW264.7 [9]): Active | inhibition (RAW264.7 [10]): Active; Reduction In Cellular P-Sapk/Jnk Level Was Almost Close To Untreated Control | inhibition at 2 µM (RAW264.7 [11]): 54.5% | inhibition (RAW264.7 [12]): Active | inhibition (RAW264.7 [13]): 59% | inhibition at 2 µM (RAW264.7 [14]): 92.9% | IC50 (RAW264.7 [15]): 500 nM
